Measured values: publication PMC3757248, “Antiestrogen-binding site ligands induce autophagy in myeloma cells that proceeds through alteration of cholesterol metabolism” (Oncotarget, 2013)

Experiments:
[1] = system: NCI-H929; design: method as in earlier work; settings: cited from earlier work
[2] = target: ChEH (Homo sapiens, UniProt Q15125+Q9UBM7); test: ChEH activity in HMCLs (TLC); assay type: cell-based; design: endogenous in cells; host or cells: RPMI 8226 and LP-1 human multiple myeloma cell lines; settings: OHT, Tam, RU 58668 10 μM, PBPE 40 μM
From the text: Cells were then pelleted and extracted with chloroform/methanol (2/1). The organic layer was reduced to dryness under a flux of argon and the residue was resuspended in EtOH. Samples were applied to thin layer chromatography (TLC) plates and developed using ethyl acetate as previously described. The radioactive metabolites were visualized by autoradiography using Kodak Biomax MS films.

[3] = system: U266; design: method as in earlier work; settings: cited from earlier work
[4] = system: MM tumors; design: method as in PMID 20033476, PMID 16753295; settings: xenografted mice bearing MM tumors; cited from earlier work
[5] = system: RPMI 8226; design: method as in earlier work; settings: cited from earlier work
[6] = system: Karpas 620; design: method as in earlier work; settings: cited from earlier work
[7] = system: LP-1 cells; test: Electron microscopy for MLBs, AVs and UVs; assay type: cell-based, human; settings: 48 h, 10 μM drug (PBPE 40 μM)
[8] = system: LP-1; design: method as in earlier work; settings: cited from earlier work
[9] = system: RPMI 8226 cells; test: Presence of 5,6-EC in cells by GC/MS; assay type: cell-based, human; settings: 48 h, 10 μM drug (PBPE 40 μM)
Experimental: (§1) The organic layer was reduced to dryness under a flux of argon and the residue was resuspended in ethanol. Sterols were analyzed by liquid chromatography and gas-liquid chromatography as described before. Neutral lipids and sphingomyelin analyses were done according to previously published procedures.

[10] = system: LP-1 cells; test: Presence of 5,6-EC in cells by GC/MS; assay type: cell-based, human; settings: 48 h, 10 μM drug (PBPE 40 μM)
Experimental: as §1

[11] = system: OPM-2; design: method as in earlier work; settings: cited from earlier work
[12] = system: RPMI 8226 cells; test: Electron microscopy for MLBs, AVs and UVs; assay type: cell-based, human; settings: 48 h, 10 μM drug (PBPE 40 μM)
[13] = system: RPMI 8226 cells; test: Sterols accumulated in cells, HPLC and GC/MS; assay type: cell-based, human; settings: RPMI 8226, 48 h incubation
Experimental: as §1

[14] = system: LP-1 cells; test: Sterols accumulated in cells, HPLC and GC/MS; assay type: cell-based, human; settings: LP1, 48 h incubation
Experimental: as §1

[15] = system: RPMI 8226 and LP-1 cells; test: Degradation of long-lived proteins; assay type: cell-based, human; settings: both cell lines, 10 μM OHT, 40 μM PBPE
Experimental: The degradation of long-lived proteins was measured as described previously. Briefly, HMCLs were incubated for 24 h at 37°C with 0.2 μCi/ml of L-[[14]C]valine in complete medium. Cells were then washed resuspended in medium with no nutrients but supplemented with 10 mM valine. After the first h of incubation, the chase medium was replaced by complete medium and the incubation continued for 5 h. […] Radiolabeled proteins present in the chase medium as well as in cells were precipitated with 10% trichloroacetic acid (v/v) at 4°C. Radioactivity was measured by scintillation counting. The rate of protein degradation was calculated from the ratio of radioactivity in the medium to that of precipitated cell fraction.

[16] = system: HMCLs; test: Free sterol accumulation in HMCLs; assay type: cell-based, human
Experimental: as §1

[17] = system: RPMI 8226 and LP-1 cells; test: Intracellular free sterol, TG and SM contents; assay type: cell-based, human; settings: 5 µM OHT, 20 µM PBPE or 5 µM RU 58668 for three days
Experimental: as §1

[18] = target: AEBS (Homo sapiens, UniProt Q15125+Q9UBM7); test: Binding to the AEBS in HMCLs; design: endogenous in cells; host or cells: RPMI 8226 and LP-1 human multiple myeloma cell lines
[19] = RPMI 8226, presence of 500 μM Vit E

Sequence of ChEH (Q15125 whole entry): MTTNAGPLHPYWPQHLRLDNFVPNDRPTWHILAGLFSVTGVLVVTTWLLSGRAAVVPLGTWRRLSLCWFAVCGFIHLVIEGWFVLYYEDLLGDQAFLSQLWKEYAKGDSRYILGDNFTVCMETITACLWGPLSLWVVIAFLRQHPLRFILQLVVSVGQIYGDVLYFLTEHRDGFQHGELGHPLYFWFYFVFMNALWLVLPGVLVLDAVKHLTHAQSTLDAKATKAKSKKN
Sequence of ChEH (Q9UBM7 whole entry): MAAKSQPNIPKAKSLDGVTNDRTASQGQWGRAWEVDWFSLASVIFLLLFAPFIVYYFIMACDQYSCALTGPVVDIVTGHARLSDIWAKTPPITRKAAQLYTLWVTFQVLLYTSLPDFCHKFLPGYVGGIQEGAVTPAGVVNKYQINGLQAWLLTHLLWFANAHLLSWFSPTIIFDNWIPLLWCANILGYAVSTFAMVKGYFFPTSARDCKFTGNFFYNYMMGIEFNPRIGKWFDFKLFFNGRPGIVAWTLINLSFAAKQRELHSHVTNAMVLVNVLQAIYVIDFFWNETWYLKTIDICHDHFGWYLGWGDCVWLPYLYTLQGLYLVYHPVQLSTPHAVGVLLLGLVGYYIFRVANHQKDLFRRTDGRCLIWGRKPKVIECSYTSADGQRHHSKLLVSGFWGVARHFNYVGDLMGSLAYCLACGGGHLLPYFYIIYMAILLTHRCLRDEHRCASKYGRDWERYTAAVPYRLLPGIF
Sequence of AEBS (Q15125 whole entry): as the sequence (Q15125 whole entry) above
Sequence of AEBS (Q9UBM7 whole entry): as the sequence (Q9UBM7 whole entry) above

## CC/C(=C(\c1ccc(O)cc1)c1ccc(OCCN(C)C)cc1)c1ccccc1 [OHT]
[1]
  SERM and SERDs effects on MM cell lines: G1-arrest and apoptosis
[2]
  ChEH activity, conversion of 5,6-EC into CT by TLC: ChEH activity was inhibited
[3]
  SERM and SERDs effects on MM cell lines: G1-arrest and apoptosis
[4]
  tumor growth: block tumor growth
[5]
  SERM and SERDs effects on MM cell lines: G1-arrest and apoptosis
[6]
  SERM and SERDs effects on MM cell lines: No response
[7]; LP-1, absence of Vit E
  AV: + + (The sign + means that 80 % cells were positive and contained at least 5 vesicles)
  MLB: + + (The sign + means that 80 % cells were positive and contained at least 5 vesicles)
  UV: + (The sign + means that 80 % cells were positive and contained at least 5 vesicles)
[7]; LP-1, presence of 500 μM Vit E
  AV: + + (The sign + means that 80 % cells were positive and contained at least 5 vesicles)
  MLB: + + (The sign + means that 80 % cells were positive and contained at least 5 vesicles)
  UV: − (otherwise they were considered as negative (-))
[8]
  SERM and SERDs effects on MM cell lines: G1-arrest and apoptosis
[9]; RPMI 8226, absence of Vit E
  5,6-EC: +
[9]; [19]
  5,6-EC: −
[10]; LP-1, absence of Vit E
  5,6-EC: +
[10]; LP-1, presence of 500 μM Vit E
  5,6-EC: −
[11]
  SERM and SERDs effects on MM cell lines: No response
[12]; RPMI 8226, absence of Vit E
  AV: + + (The sign + means that 80 % cells were positive and contained at least 5 vesicles)
  MLB: + + (The sign + means that 80 % cells were positive and contained at least 5 vesicles)
  UV: + (The sign + means that 80 % cells were positive and contained at least 5 vesicles)
[12]; [19]
  AV: + + (The sign + means that 80 % cells were positive and contained at least 5 vesicles)
  MLB: + + (The sign + means that 80 % cells were positive and contained at least 5 vesicles)
  UV: − (otherwise they were considered as negative (-))
[13]
  Zymostenol: 1.8 percent by the weight of total sterol
[14]
  Desmosterol: 44.4 percent by the weight of total sterol
  Zymostenol: 1.9 percent by the weight of total sterol
[15]
  rate of long-lived protein degradation: stimulated
[16]
  free sterol accumulated: accumulation of desmosterol
[17]
  intracellular free sterol, triacylglycerol (TG) and sphingomyelin (SM) contents: increases
[18]
  affinity for the AEBS: high affinity
